Data taken from article PMC7300217, “Surfactin Like Broad Spectrum Antimicrobial Lipopeptide Co-produced With Sublancin From Bacillus subtilis Strain A52: Dual Reservoir of Bioactives” (Frontiers in Microbiology, 2020).
In brackets after ≈: the same amount, converted by molar mass.

Assays:
F. moniliforme MTCC 158 = experiment: MIC against phytopathogenic fungi, 96-well microtiter plate assay; format: cell-based, Fusarium moniliforme; conditions: Fusarium verticillioides, MTCC158; 1 × 10^5 spores/ml in PDB, 25°C, OD600 after 48 h, triplicate
Protocol: (§1) The antimicrobial activity was tested by well diffusion assay as mentioned earlier ([Singh et al., 2014]). Strain A52 was grown for 24 h in 500 ml of nutrient broth (NB, Hi-media, India) using 1000 ml flask and subsequently cells were removed by centrifugation (10,000 rpm for 15 min at 4°C). Supernatant was filtered through 0.22 μm filter (Millipore, United States) to obtain cell-free fermented broth (CFB) that was used for antimicrobial assay (50 μl) against various indicator strains and the activity was measured as diameter of inhibition zone. Test strains used were Staphylococcus aureus (MTCC 1430), Bacillus subtilis (MTCC 121), B. firmus (MTCC 488), B. licheniformis (MTCC 429), B. thuringiensis (MTCC 1953), Escherichia coli (MTCC 1610), Micrococcus luteus (MTCC 106), Steptococcus pyrogens (MTCC 1928), S. anginosus (MTCC 1929), S. oralis (MTCC 2696), S. mutans (MTCC 497), Candida albicans (MTCC 1637), C. albicans (MTCC 183), C. albicans (MTCC 227), C. tropicalis (MTCC 184), C. glabrata (MTCC 3019), C. haemulonii (MTCC 2766), and C. inconsplicue (MTCC 1074). The phytopathogenic fungi employed in this study were Alternaria brassicicola (MTCC 2102), Colletotrichum acutatum (MTCC 1037), and Fusarium moniliforme (MTCC 158). Clinical isolates of Candida were provided by National Culture Collection of Pathogenic Fungi (NCCPF), PGIMER, Chandigarh, India.
(§2) The minimum inhibitory concentration (MIC) of HPLC purified peptides was evaluated by using microtiter plate dilution assay. The peptide concentration was estimated using BCA protein assay (Thermo Fisher Scientific, United States) method as described by manufacturer. […] OD was measured at 600 nm after 24 and 48 h for bacteria and yeast, respectively, using ELISA microplate reader (Thermo, United States). MIC against phytopathogenic fungi was determined using 96-well microtiter plate assay ([Kaur et al., 2016]). […] The microplates were incubated at 25°C and readings were recorded at 600 nm after 48 h. […]

[1] = test system: C. glabrata SKSS ID (clinical isolate); experiment: MIC, microtiter plate dilution assay; format: cell-based; conditions: Nakaseomyces glabratus, 5 × 10^5 CFU/ml, 37°C, OD600 after 48 h, triplicate
Protocol: as §1
(§3) The minimum inhibitory concentration (MIC) of HPLC purified peptides was evaluated by using microtiter plate dilution assay. The peptide concentration was estimated using BCA protein assay (Thermo Fisher Scientific, United States) method as described by manufacturer. Actively growing test strains (5 × 10^5 CFU/ml) were inoculated in a 96-well plate with different concentrations of the peptides and plates were incubated for 24–48 h at 37°C (final volume in each well is 200 μl). OD was measured at 600 nm after 24 and 48 h for bacteria and yeast, respectively, using ELISA microplate reader (Thermo, United States). MIC against phytopathogenic fungi was determined using 96-well microtiter plate assay ([Kaur et al., 2016]). In 96-well microplates, 100 μl of fungal spore suspension (1 × 10^5 spores/ml) prepared in potato dextrose broth (PDB, Hi-media, India) was mixed with100 μl of fresh PDB containing different concentrations of lipopeptide. Control well contained 100 μl of fungal spore suspension and 100 μl of only medium. The microplates were incubated at 25°C and readings were recorded at 600 nm after 48 h. The lowest concentration showing no growth was considered as MIC. Each test was done in triplicate and optical density (OD600) of peptide treated wells were compared with uninoculated wells (blank medium control).

[2] = test system: C. kefyr 410004 (clinical isolate); experiment: MIC, microtiter plate dilution assay; format: cell-based; conditions: Kluyveromyces marxianus, 5 × 10^5 CFU/ml, 37°C, OD600 after 48 h, triplicate
Protocol: as §1, §3

[3] = test system: C. aurius 470126 (clinical isolate); experiment: MIC, microtiter plate dilution assay; format: cell-based; conditions: 5 × 10^5 CFU/ml, 37°C, OD600 after 48 h, triplicate
Protocol: as §1, §3

C. tropicalis MTCC 184 = experiment: MIC, microtiter plate dilution assay; format: cell-based; conditions: Candida tropicalis, MTCC184; 5 × 10^5 CFU/ml, 37°C, OD600 after 48 h, triplicate
Protocol: as §1, §3

[4] = test system: C. krusei 440009 (clinical isolate); experiment: MIC, microtiter plate dilution assay; format: cell-based; conditions: Pichia kudriavzevii, 5 × 10^5 CFU/ml, 37°C, OD600 after 48 h, triplicate
Protocol: as §1, §3

C. glabrata MTCC 3019 = experiment: MIC, microtiter plate dilution assay; format: cell-based; conditions: Nakaseomyces glabratus, MTCC3019; 5 × 10^5 CFU/ml, 37°C, OD600 after 48 h, triplicate
Protocol: as §1, §3

[5] = test system: C. haemulonii 470125 (clinical isolate); experiment: MIC, microtiter plate dilution assay; format: cell-based; conditions: Candidozyma haemuli, 5 × 10^5 CFU/ml, 37°C, OD600 after 48 h, triplicate
Protocol: as §1, §3

[6] = test system: C. inconsplicue MTCC 1074; experiment: MIC, microtiter plate dilution assay; format: cell-based; conditions: 5 × 10^5 CFU/ml, 37°C, OD600 after 48 h, triplicate
Protocol: as §1, §3

C. haemulonii MTCC 2766 = experiment: MIC, microtiter plate dilution assay; format: cell-based; conditions: Candidozyma haemuli, MTCC2766; 5 × 10^5 CFU/ml, 37°C, OD600 after 48 h, triplicate
Protocol: as §1, §3

[7] = test system: C. rugos 470141 (clinical isolate); experiment: MIC, microtiter plate dilution assay; format: cell-based; conditions: 5 × 10^5 CFU/ml, 37°C, OD600 after 48 h, triplicate
Protocol: as §1, §3

[8] = test system: C. tropicalis 420024 (clinical isolate); experiment: MIC, microtiter plate dilution assay; format: cell-based; conditions: Candida tropicalis, 5 × 10^5 CFU/ml, 37°C, OD600 after 48 h, triplicate
Protocol: as §1, §3

[9] = test system: C. parasilosis 450030 (clinical isolate); experiment: MIC, microtiter plate dilution assay; format: cell-based; conditions: 5 × 10^5 CFU/ml, 37°C, OD600 after 48 h, triplicate
Protocol: as §1, §3

C. albicans MTCC 1637 = experiment: MIC, microtiter plate dilution assay; format: cell-based, Candida albicans; conditions: Candida albicans, MTCC1637; 5 × 10^5 CFU/ml, 37°C, OD600 after 48 h, triplicate
Protocol: as §1, §3

C. albicans MTCC 227 = experiment: MIC, microtiter plate dilution assay; format: cell-based, Candida albicans; conditions: Candida albicans, MTCC227; 5 × 10^5 CFU/ml, 37°C, OD600 after 48 h, triplicate
Protocol: as §1, §3

[10] = test system: C. albicans 400054 (clinical isolate); experiment: MIC, microtiter plate dilution assay; format: cell-based, Candida albicans; conditions: Candida albicans, 5 × 10^5 CFU/ml, 37°C, OD600 after 48 h, triplicate
Protocol: as §1, §3

C. albicans MTCC 183 = experiment: MIC, microtiter plate dilution assay; format: cell-based, Candida albicans; conditions: Candida albicans, MTCC183; 5 × 10^5 CFU/ml, 37°C, OD600 after 48 h, triplicate
Protocol: as §1, §3

[11] = test system: A. brassicicola MTCC 2102; experiment: MIC against phytopathogenic fungi, 96-well microtiter plate assay; format: cell-based, Alternaria brassicicola; conditions: Alternaria brassicicola, MTCC2102; 1 × 10^5 spores/ml in PDB, 25°C, OD600 after 48 h, triplicate
Protocol: (§4) The antimicrobial activity was tested by well diffusion assay as mentioned earlier ([Singh et al., 2014]). Strain A52 was grown for 24 h in 500 ml of nutrient broth (NB, Hi-media, India) using 1000 ml flask and subsequently cells were removed by centrifugation (10,000 rpm for 15 min at 4°C). Supernatant was filtered through 0.22 μm filter (Millipore, United States) to obtain cell-free fermented broth (CFB) that was used for antimicrobial assay (50 μl) against various indicator strains and the activity was measured as diameter of inhibition zone. […]
as §2, with “assay.” for “assay. The peptide concentration was estimated using BCA protein assay (Thermo Fisher Scientific, United States) method as described by manufacturer.”

S. oralis MTCC 2696 = experiment: MIC, microtiter plate dilution assay; format: cell-based; conditions: Streptococcus oralis, MTCC2696; 5 × 10^5 CFU/ml, 37°C, OD600 after 24 h, triplicate
Protocol: as §1, §3

S. mutans MTCC 497 = experiment: MIC, microtiter plate dilution assay; format: cell-based; conditions: Streptococcus mutans, MTCC497; 5 × 10^5 CFU/ml, 37°C, OD600 after 24 h, triplicate
Protocol: as §1, §3

S. anginosus MTCC1929 = experiment: MIC, microtiter plate dilution assay; format: cell-based; conditions: Streptococcus anginosus, MTCC1929; 5 × 10^5 CFU/ml, 37°C, OD600 after 24 h, triplicate
Protocol: as §1, §3

S. pyogenes MTCC 1928 = experiment: MIC, microtiter plate dilution assay; format: cell-based; conditions: Streptococcus pyogenes, MTCC1928; 5 × 10^5 CFU/ml, 37°C, OD600 after 24 h, triplicate
Protocol: as §1, §3

B. subtilis MTCC 121 = experiment: MIC, microtiter plate dilution assay; format: cell-based, Bacillus subtilis; conditions: Bacillus subtilis, MTCC121; 5 × 10^5 CFU/ml, 37°C, OD600 after 24 h, triplicate
Protocol: as §4
as §2, with “assay.” for “assay. The peptide concentration was estimated using BCA protein assay (Thermo Fisher Scientific, United States) method as described by manufacturer.”

M. luteus MTCC 106 = experiment: MIC, microtiter plate dilution assay; format: cell-based, Micrococcus luteus; conditions: Micrococcus luteus, MTCC106; 5 × 10^5 CFU/ml, 37°C, OD600 after 24 h, triplicate
Protocol: as §4
as §2, with “assay.” for “assay. The peptide concentration was estimated using BCA protein assay (Thermo Fisher Scientific, United States) method as described by manufacturer.”

E. coli MTCC 1610 = experiment: MIC, microtiter plate dilution assay; format: cell-based, Escherichia coli; conditions: Escherichia coli, MTCC1610; 5 × 10^5 CFU/ml, 37°C, OD600 after 24 h, triplicate
Protocol: as §4
as §2, with “assay.” for “assay. The peptide concentration was estimated using BCA protein assay (Thermo Fisher Scientific, United States) method as described by manufacturer.”

S. aureus MTCC 1430 = experiment: MIC, microtiter plate dilution assay; format: cell-based, Staphylococcus aureus; conditions: Staphylococcus aureus, MTCC1430; 5 × 10^5 CFU/ml, 37°C, OD600 after 24 h, triplicate
Protocol: as §4
as §2, with “assay.” for “assay. The peptide concentration was estimated using BCA protein assay (Thermo Fisher Scientific, United States) method as described by manufacturer.”

B. coagulans MTCC 492 = experiment: MIC, microtiter plate dilution assay; format: cell-based; conditions: Heyndrickxia coagulans, MTCC492; 5 × 10^5 CFU/ml, 37°C, OD600 after 24 h, triplicate
Protocol: as §3

B. cereus MTCC 430 = experiment: MIC, microtiter plate dilution assay; format: cell-based; conditions: Bacillus cereus, MTCC430; 5 × 10^5 CFU/ml, 37°C, OD600 after 24 h, triplicate
Protocol: as §3

`C[C@@H]1[C@H](O)[C@@H](C)/C=C/C=C/C=C/C=C/C=C/C=C/C=C/[C@H](O[C@@H]2O[C@H](C)[C@@H](O)[C@H](N)[C@@H]2O)C[C@@H]2O[C@](O)(C[C@@H](O)C[C@@H](O)[C@H](O)CC[C@@H](O)C[C@@H](O)CC(=O)O[C@H]1C)C[C@H](O)[C@H]2C(=O)O` [Amphotericin B, reference compound] showed an MIC (F. moniliforme MTCC 158) of 50 µg/mL (≈ 54.1 µM), an MIC [1] of 100 µg/mL (≈ 108 µM) and an MIC [2] of 50 µg/mL (≈ 54.1 µM). It also gave an MIC [3] of 5 µg/mL (≈ 5.41 µM), an MIC (C. tropicalis MTCC 184) of 35 µg/mL (≈ 37.9 µM) and an MIC [4] of 5 µg/mL (≈ 5.41 µM). For the same compound, the MIC (C. glabrata MTCC 3019) was 25 µg/mL (≈ 27.1 µM), the MIC [5] was 50 µg/mL (≈ 54.1 µM) and the MIC [6] was 10 µg/mL (≈ 10.8 µM). For the same compound, the MIC (C. haemulonii MTCC 2766) was 100 µg/mL (≈ 108 µM), the MIC [7] was 5 µg/mL (≈ 5.41 µM) and the MIC [8] was 50 µg/mL (≈ 54.1 µM). For the same compound, the MIC [9] was 50 µg/mL (≈ 54.1 µM), the MIC (C. albicans MTCC 1637) was 5 µg/mL (≈ 5.41 µM) and the MIC (C. albicans MTCC 227) was 5 µg/mL (≈ 5.41 µM). For the same compound, the MIC [10] was 5 µg/mL (≈ 5.41 µM), the MIC (C. albicans MTCC 183) was 5 µg/mL (≈ 5.41 µM) and the MIC [11] was 50 µg/mL (≈ 54.1 µM).

In the case of `CC1(C)S[C@@H]2[C@H](NC(=O)[C@H](N)c3ccccc3)C(=O)N2[C@H]1C(=O)O` [Ampicillin, reference compound], the MIC (S. oralis MTCC 2696) is reported as 0.4 µg/mL (≈ 1.14 µM), the MIC (S. mutans MTCC 497) is reported as 0.4 µg/mL (≈ 1.14 µM) and the MIC (S. anginosus MTCC1929) is reported as 0.25 µg/mL (≈ 0.715 µM). It also gave an MIC (S. pyogenes MTCC 1928) of 0.03 µg/mL (≈ 0.0859 µM), an MIC (B. subtilis MTCC 121) of 0.5 µg/mL (≈ 1.43 µM) and an MIC (M. luteus MTCC 106) of 0.2 µg/mL (≈ 0.572 µM). For the same compound, the MIC (E. coli MTCC 1610) was 1 µg/mL (≈ 2.86 µM), the MIC (S. aureus MTCC 1430) was 0.25 µg/mL (≈ 0.715 µM) and the MIC (B. coagulans MTCC 492) was 0.5 µg/mL (≈ 1.43 µM). It also gave an MIC (B. cereus MTCC 430) of 0.5 µg/mL (≈ 1.43 µM).
